Assay results reported in PubChem BioAssay (NCI).
Values joined by “and” are separate entries in the source; they are usually repeats but may differ in a detail not shown here. Identical values can stand only once.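 Cultured in 96-well plates, cells were exposed to test compound for 48 hours across five concentrations. GI50 = concentration required for 50% inhibition of growth. TGI denotes the concentration required for complete inhibition of growth.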 Where a SMILES comes first, the peptide text is derived from it. Bridges are numbered along the chain shown (N, C = ends). [ ]: non-standard residue; d: D form. ξ: configuration not given here. ξThr(3R) = C[C@@H](O)C(N)C(=O)O; S5 = C=CCCC[C@](C)(N)C(=O)O

Key:
Assay in all cases: NCI anticancer screen, dose series, 48 h
SF-539 CNS = test system: SF-539 CNS
COLO 205 colon = test system: COLO 205 colon
NCI-H23 lung = test system: NCI-H23 lung
MOLT-4 leukemia = test system: MOLT-4 leukemia
SNB-75 CNS = test system: SNB-75 CNS
UACC-257 melanoma = test system: UACC-257 melanoma
MCF7 breast = test system: MCF7 breast
MDA-MB-231 breast = test system: MDA-MB-231 breast
CAKI-1 renal = test system: CAKI-1 renal

Row | SMILES | TGI (SF-539 CNS) [µM] | TGI (COLO 205 colon) [µM] | TGI (NCI-H23 lung) [µM] | TGI (MOLT-4 leukemia) [µM] | TGI (SNB-75 CNS) | TGI (UACC-257 melanoma) [µM] | GI50 (MCF7 breast) [µM] | TGI (MCF7 breast) | GI50 (SF-539 CNS) [µM] | GI50 (MDA-MB-231 breast) [µM] | TGI (MDA-MB-231 breast) [µM] | GI50 (COLO 205 colon) [µM] | GI50 (CAKI-1 renal) [µM] | TGI (CAKI-1 renal) | GI50 (NCI-H23 lung) [µM] | GI50 (MOLT-4 leukemia) [µM] | GI50 (SNB-75 CNS) [µM] | GI50 (UACC-257 melanoma) [µM]
1 | COC1[C@H](NC(=O)OC(C)(C)C)C(=O)N1Cc1ccccc1 (some centres not stated) | > 100 | > 100 | > 100 | > 100 | > 100 µM | > 100 |  |  |  |  |  |  |  |  |  |  |  | 
2 | CC(=O)N[C@H](C(=O)N[C@@H](CCCNC(=N)N)C(=O)N[C@@H](CCCCN)C(=O)N[C@@H](CCCNC(=N)N)C(=O)NC(C(=O)N[C@@H](CC(C)C)C(=O)N[C@@H](CCCNC(=N)N)C(=O)N[C@@]1(C)CCC/C=C\CCC[C@@](C)(C(=O)N[C@@H](CCCNC(=N)N)C(=O)N[C@@H](CCC(=O)O)C(=O)N[C@@H](CC(C)C)C(=O)N[C@H](C(=O)N[C@@H](CCC(=O)O)C(N)=O)C(C)C)NC(=O)[C@H](CCC(N)=O)NC(=O)[C@H](CC(C)C)NC(=O)[C@H](CC(C)C)NC1=O)[C@@H](C)O)C(C)C (stereo partly drawn) (Ac-VRKR[ξThr(3R)]LR[S5]LLQ[S5]RELVE-NH2; staple (Z) 8-12) | 7.54 | 9.89 | 13.3 | 22.9 | 10.8 µM |  | 3.41 | 11.7 µM | 2.1 | 8.24 | 17.1 | 2.41 | 3.79 | 10.4 µM | 5.26 | 9.85 | 3.8 | 
3 | CCCCCC[C@@H](C)Nc1nc2ccccc2c2occc12 | 22.5 | > 100 | 6.97 | > 100 |  | 24 | 10.5 | > 100 µM | 10.5 | 10.8 | 22.7 | 21.2 | 13.6 | 32.1 µM | 1 | 20.9 |  | 4.67
4 | Cc1cc(=O)n(-c2c(C)cccc2Cl)c(/C=C(\O)c2ccncc2)n1 | > 100 | > 100 | > 100 | > 100 | > 100 µM | > 100 |  |  |  |  |  |  |  | > 100 µM |  |  |  | 
5 | CC(=O)OC(C)(C)/C=C/C(=O)[C@](C)(O)[C@H]1[C@H](O)C[C@@]2(C)[C@@H]3CC=C4[C@@H](C=C(O)C(=O)C4(C)C)[C@]3(C)C(=O)C[C@]12C |  |  |  |  | 42.7 nM [middle of 4 runs] |  |  | 3.6 µM and 1.77 µM and 1.86 µM |  |  | 3.39 |  |  | 44 nM [middle of 4 runs] |  |  |  | 
6 | CCCCCCCCCCSC(=O)NC | > 100 | > 100 | 99.8 | 46.5 | > 100 µM | 85 |  |  |  |  |  |  |  | > 100 µM |  |  |  | 
7 | COc1ccccc1/C=C/C1=C(C)CCC(c2ccccc2OC)C1C (configuration not stated) | 0.215 | 0.498 | 13.6 |  | 76.5 µM | > 89.8 | 0.0633 | 1.28 µM | 0.0833 | 0.157 | 6.41 | 0.21 | 0.157 | 7.69 µM | 0.188 |  | 0.131 | 
8 | O=C(O)c1c(Cl)c(Cl)c(Cl)c(Cl)c1C(=O)Nc1ccc2cn[nH]c2c1 | > 100 | > 100 | > 100 |  | > 100 µM | > 100 |  | > 100 µM |  |  | > 100 |  |  | > 100 µM |  |  |  | 
9 | CC(=O)[CH-]C(=O)c1ccccc1.CC(=O)[CH-]C(=O)c1ccccc1.CC(C)CCC[C@H](C)C1CCC2[C@@H]3CC=C4C[C@@H]([O-])CC[C@]4(C)C3CC[C@@]21C.CC(C)CCC[C@H](C)C1CCC2[C@@H]3CC=C4C[C@@H]([O-])CC[C@]4(C)C3CC[C@@]21C.Cl.[Ti+4] (some centres not stated) | > 25 | > 25 | > 25 | > 25 | > 25 µM | > 25 |  |  | > 25 |  |  | > 25 | > 25 | > 25 µM | > 25 | > 25 | 22.1 | > 25
10 | N#Cc1ccccc1C#C/C=C\C#CC#C/C=C\C#Cc1ccccc1C#N | > 100 | 21.1 | 19.7 | 89.3 |  | > 100 | 47.4 | > 100 µM | 22.6 | 8.76 | 35.4 | 7.33 | 20.1 | 73.4 µM | 3.14 | 15.6 |  | 52.7
11 | CC(=O)Nc1ccc(/C=C2\N=C(c3ccccc3)OC2=O)cc1 |  | > 100 | > 100 | > 100 | > 100 µM | > 100 |  |  |  |  |  |  |  |  |  |  |  | 
12 | COc1ccc(S(=O)(=O)N[C@H](C(=O)O)c2ccccc2)cc1 | > 100 | > 100 | > 100 | > 100 | > 100 µM | > 100 |  |  |  |  |  |  |  | > 100 µM |  |  |  | 
13 | CCOc1ccc(OCC)c([P+](c2ccccc2)(c2ccccc2)c2ccccc2)c1 | 8.77 | 1.31 | 1.17 |  | 10.6 µM | 3.8 |  |  |  |  |  |  |  | 6.1 µM |  |  |  | 
